Laboratory results: the NIST ThermoML archive (doi:10.1016/j.jct.2016.10.034)

Assay: xn = mol fraction of the nth substance listed
Settings: 100 kPa, Liquid; for viscosity: Falling or rolling sphere viscometry; for mass density: Vibrating tube method

CC[N+]1(C)CCOCC1.O=C([O-])CO [N-ethyl-N-methylmorpholinium glycolate] + O
Settings	mass density [kg/m3]	viscosity [mPa·s]
298.15 K, x1 = 0.0933	1128.6	–
298.15 K, x1 = 0.1688	1170.3	21.4
298.15 K, x1 = 0.2209	1186.5	43.1
298.15 K, x1 = 0.288	1199.7	95.3
298.15 K, x1 = 0.3907	1211.3	359
298.15 K, x1 = 0.4809	1217.5	842
298.15 K, x1 = 0.5793	1221.9	1779
298.15 K, x1 = 0.6669	1224.6	–
298.15 K, x1 = 0.7573	1226.9	–
298.15 K, x1 = 0.8256	1228	–
303.15 K, x1 = 0.0933	1125.6	–
303.15 K, x1 = 0.1688	1167	17
303.15 K, x1 = 0.2209	1183.1	32.9
303.15 K, x1 = 0.288	1196.3	69.7
303.15 K, x1 = 0.3907	1207.9	224
303.15 K, x1 = 0.4809	1214.1	494
303.15 K, x1 = 0.5793	1218.5	1005
303.15 K, x1 = 0.6669	1221.2	1723
303.15 K, x1 = 0.7573	1223.6	–
303.15 K, x1 = 0.8256	1224.8	–
308.15 K, x1 = 0.0933	1122.6	–
308.15 K, x1 = 0.1688	1163.7	13.9
308.15 K, x1 = 0.2209	1179.6	25.8
308.15 K, x1 = 0.288	1192.8	52.3
308.15 K, x1 = 0.3907	1204.5	158
308.15 K, x1 = 0.4809	1210.7	339
308.15 K, x1 = 0.5793	1215.1	678
308.15 K, x1 = 0.6669	1217.9	1151
308.15 K, x1 = 0.7573	1220.2	1866
308.15 K, x1 = 0.8256	1221.5	–
313.15 K, x1 = 0.0933	1119.5	–
313.15 K, x1 = 0.1688	1160.4	11.3
313.15 K, x1 = 0.2209	1176.2	20.1
313.15 K, x1 = 0.288	1189.4	40.5
313.15 K, x1 = 0.3907	1201.1	118
313.15 K, x1 = 0.4809	1207.3	250
313.15 K, x1 = 0.5793	1211.8	496
313.15 K, x1 = 0.6669	1214.6	838
313.15 K, x1 = 0.7573	1216.9	1354
313.15 K, x1 = 0.8256	1218.2	1882
318.15 K, x1 = 0.0933	1116.4	–
318.15 K, x1 = 0.1688	1157	9.61
318.15 K, x1 = 0.2209	1172.8	16.8
318.15 K, x1 = 0.288	1186	32
318.15 K, x1 = 0.3907	1197.7	85.6
318.15 K, x1 = 0.4809	1204	174
318.15 K, x1 = 0.5793	1208.5	334
318.15 K, x1 = 0.6669	1211.2	555
318.15 K, x1 = 0.7573	1213.7	884
318.15 K, x1 = 0.8256	1214.9	1219
323.15 K, x1 = 0.0933	1113.2	–
323.15 K, x1 = 0.1688	1153.6	8.15
323.15 K, x1 = 0.2209	1169.4	13.9
323.15 K, x1 = 0.288	1182.6	25.5
323.15 K, x1 = 0.3907	1194.3	65.4
323.15 K, x1 = 0.4809	1200.6	130
323.15 K, x1 = 0.5793	1205.2	246
323.15 K, x1 = 0.6669	1207.9	405
323.15 K, x1 = 0.7573	1210.3	642
323.15 K, x1 = 0.8256	1211.7	882
328.15 K, x1 = 0.0933	1110	–
328.15 K, x1 = 0.1688	1150.2	6.97
328.15 K, x1 = 0.2209	1166	11.7
328.15 K, x1 = 0.288	1179.2	20.8
328.15 K, x1 = 0.3907	1191	54
328.15 K, x1 = 0.4809	1197.3	98.6
328.15 K, x1 = 0.5793	1201.9	179
328.15 K, x1 = 0.6669	1204.7	283
328.15 K, x1 = 0.7573	1207	435
328.15 K, x1 = 0.8256	1208.5	587
333.15 K, x1 = 0.0933	1106.8	–
333.15 K, x1 = 0.1688	1146.8	6
333.15 K, x1 = 0.2209	1162.6	9.79
333.15 K, x1 = 0.288	1175.8	17.3
333.15 K, x1 = 0.3907	1187.6	43.4
333.15 K, x1 = 0.4809	1194	77.6
333.15 K, x1 = 0.5793	1198.6	138
333.15 K, x1 = 0.6669	1201.5	217
333.15 K, x1 = 0.7573	1203.8	329
333.15 K, x1 = 0.8256	1205.2	441
338.15 K, x1 = 0.0933	1103.5	–
338.15 K, x1 = 0.1688	1143.4	5.2
338.15 K, x1 = 0.2209	1159.2	8.55
338.15 K, x1 = 0.288	1172.4	14.6
338.15 K, x1 = 0.3907	1184.3	32.4
338.15 K, x1 = 0.4809	1190.7	59
338.15 K, x1 = 0.5793	1195.4	105
338.15 K, x1 = 0.6669	1198.3	165
338.15 K, x1 = 0.7573	1200.8	253
338.15 K, x1 = 0.8256	1202.1	340
343.15 K, x1 = 0.0933	1100.2	–
343.15 K, x1 = 0.1688	1140	4.55
343.15 K, x1 = 0.2209	1155.8	7.41
343.15 K, x1 = 0.288	1169	12.4
343.15 K, x1 = 0.3907	1181	28.9
343.15 K, x1 = 0.4809	1187.5	49.6
343.15 K, x1 = 0.5793	1192.2	85.3
343.15 K, x1 = 0.6669	1195.1	131
343.15 K, x1 = 0.7573	1197.6	195
343.15 K, x1 = 0.8256	1199	258
348.15 K, x1 = 0.0933	1096.8	–
348.15 K, x1 = 0.1688	1136.6	4.01
348.15 K, x1 = 0.2209	1152.4	6.46
348.15 K, x1 = 0.288	1165.7	10.7
348.15 K, x1 = 0.3907	1177.7	24.2
348.15 K, x1 = 0.4809	1184.2	40.4
348.15 K, x1 = 0.5793	1189	67.9
348.15 K, x1 = 0.6669	1192	102
348.15 K, x1 = 0.7573	1194.5	150
348.15 K, x1 = 0.8256	1195.9	196
